Source: US10227346B2, “Methyl- and trifluoromethyl-substituted pyrrolopyridine modulators of RORC2 and methods of use therof” (Pfizer Inc., priority 2014, dated 2019)

tested on: IL-17 production from human Th17 cells; assay: IL-17 production from human Th17 cells; type: cell-based; conditions: IL-17A in supernatant by ELISA after 6 days, human CD4+ T cells under Th17 differentiation;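 further: purified human CD4+ T cells activated with anti-CD3 plus anti-CD28 and a Th17-inducing cytokine cocktail, with compound at serial concentrations versus no compound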

Question: With COc1cc(Cl)cc(C(=O)Nc2cnc3c(c([C@@H]4CCN(C(=O)C5CCCC5)C(C)(C)C4)cn3C)c2C)c1 [Example 63, (R)-3-chloro-N-(3-(1-(cyclopentane-carbonyl)-2,2-dimethylpiperidin-4-yl)-1,4-dimethyl-1H-pyrrolo[2,3-b]pyridin-5-yl)-5-methoxybenzamide] as the compound, how does the IC50 read?
Answer: The IC50 was 12 nM.

Question: With Cc1c(NC(=O)c2cc(O)cc(C#N)c2)cnc2c1c([C@@H]1CCN(C(=O)C3CCCC3)C(C)(C)C1)cn2C [Example 64, (R)-3-cyano-N-(3-(1-(cyclopentanecarbonyl)-2,2-dimethylpiperidin-4-yl)-1,4-dimethyl-1H-pyrrolo[2,3-b]pyridin-5-yl)-5-hydroxybenzamide] as the compound, how does the IC50 read?
Answer: The IC50 was 10.2 nM.

Question: For Cn1cc([C@@H]2CCN(C(=O)C3CCCC3)C(C)(C)C2)c2c(C(F)(F)F)c(NC(=O)c3cccc(C#N)c3)cnc21 [Example 65, (R)-3-cyano-N-(3-(1-(cyclopentanecarbonyl)-2,2-dimethylpiperidin-4-yl)-1-methyl-4-(trifluoromethyl)-1H-pyrrolo[2,3-b]pyridin-5-yl)benzamide], which IC50 is on record?
Answer: Its IC50 is 10.7 nM.

Question: Which IC50 does the source give for Cc1c(NC(=O)c2cccc(C#N)c2)cnc2c1c([C@@H]1CCN(C(=O)C[C@@H](O)C(F)(F)F)C(C)(C)C1)cn2C [Example 73, 3-cyano-N-(3-((R)-2,2-dimethyl-1-((R)-4,4,4-trifluoro-3-hydroxybutanoyl)piperidin-4-yl)-1,4-dimethyl-1H-pyrrolo[2,3-b]pyridin-5-yl)benzamide] here?
Answer: Its IC50 is 25.3 nM.

Question: For Cc1c(NC(=O)c2cccc(C#N)c2)cnc2c1c([C@@H]1CCN(C(=O)CC3CCCC3)C(C)(C)C1)cn2C [Example 74, (R)-3-cyano-N-(3-(1-(2-cyclopentylacetyl)-2,2-dimethylpiperidin-4-yl)-1,4-dimethyl-1H-pyrrolo[2,3-b]pyridin-5-yl)benzamide], which IC50 is on record?
Answer: Its IC50 is 3.6 nM.

Question: Cc1c(NC(=O)c2cccc(C#N)c2)cnc2c1c([C@@H]1CCN(C(=O)CC3CCCCC3)C(C)(C)C1)cn2C [Example 75, (R)-3-cyano-N-(3-(1-(2-cyclohexylacetyl)-2,2-dimethylpiperidin-4-yl)-1,4-dimethyl-1H-pyrrolo[2,3-b]pyridin-5-yl)benzamide] was tested. Which IC50 did it give?
Answer: The IC50 was 6.8 nM.

Question: Cc1c(NC(=O)c2cccc(C#N)c2)cnc2c1c([C@@H]1CCN(C(=O)CC3CCC3)C(C)(C)C1)cn2C [Example 76, (R)-3-cyano-N-(3-(1-(2-cyclobutylacetyl)-2,2-dimethylpiperidin-4-yl)-1,4-dimethyl-1H-pyrrolo[2,3-b]pyridin-5-yl)benzamide] was tested. Which IC50 did it give?
Answer: The IC50 was 5 nM.

Question: Which IC50 does the source give for CC(C)C(=O)N1C[C@H]2CC[C@@H](C1)[C@@H]2c1cn(C)c2ncc(NC(=O)c3cccc(C#N)c3)c(C(F)(F)F)c12 [Example 77, 3-cyano-N-(3-((1R,5S,8r)-3-isobutyryl-3-azabicyclo[3.2.1]octan-8-yl)-1-methyl-4-(trifluoromethyl)-1H-pyrrolo[2,3-b]pyridin-5-yl)benzamide] here?
Answer: Its IC50 is 8.9 nM.

Question: Which IC50 does the source give for Cn1cc(C2[C@@H]3CC[C@H]2CN(C(=O)C2CCCC2)C3)c2c(C(F)(F)F)c(NC(=O)c3cccc(C#N)c3)cnc21 (stereo partly drawn) [Example 79, 3-cyano-N-{3-((1R,5S,8r)-3-(cyclopentanecarbonyl)-3-azabicyclo[3.2.1]octan-8-yl]-1-methyl-4-(trifluoromethyl)-1H-pyrrolo[2,3-b]pyridin-5-yl}benzamide] here?
Answer: The IC50 was 4.1 nM.

Question: How did the IC50 turn out when CC(C)C(=O)N1CC[C@@H](c2cn(C)c3ncc(NC(=O)c4cccc(C#N)c4F)c(C(F)(F)F)c23)[C@@H](C)C1 [Example 82, 3-cyano-2-fluoro-N-(3-((3R,4R)-1-isobutyryl-3-methylpiperidin-4-yl)-1-methyl-4-(trifluoromethyl)-1H-pyrrolo[2,3-b]pyridin-5-yl)benzamide] was run?
Answer: The IC50 was 5.7 nM.

Question: For Cc1c(NC(=O)c2cccc(C#N)c2)cnc2c1c([C@@H]1CCN(C(=O)C(C)C3CC3)C[C@@H]1C)cn2C (stereo partly drawn) [Example 86, 3-cyano-N-(3-((3R,4R)-1-(2-cyclopropylpropanoyl)-3-methylpiperidin-4-yl)-1,4-dimethyl-1H-pyrrolo[2,3-b]pyridin-5-yl)benzamide], which IC50 is on record?
Answer: The IC50 was 34.9 nM.
